Reference: patent US8802597B2, “Herbicidal pyrimidines” (E I du Pont de Nemours and Company, priority 2003, dated 2014)
Like-named read-outs stand apart in the source and are kept apart here.

Key:
Format in all cases: in vivo
rice (Oryza sativa) = experiment: Test B flooded paddy test; details: Oryza sativa, Flood, 1000 g ai/ha; scale 0 to 100; read-out: Plant response rating, Rice
Outline: (§1)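 Visual injury scoring (0 = no effect, 100 = complete control) versus controls made 13 to 15 days after treatment in the greenhouse. Test species were grown in flooded paddy to the 2-leaf stage: rice, barnyardgrass, umbrella sedge, duck salad.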

[1] = test system: duck salad (Heteranthera limosa); experiment: Test B flooded paddy test; details: Heteranthera limosa, Flood, 1000 g ai/ha; scale 0 to 100; read-out: Plant response rating, Ducksalad
Outline: as §1

[2] = test system: barnyardgrass (Echinochloa crus-galli); experiment: Test B flooded paddy test; details: Echinochloa crus-galli, Flood, 1000 g ai/ha; scale 0 (no effect) to 100 (complete control); read-out: Plant response rating, Barnyardgrass
Outline: as §1

[3] = test system: umbrella sedge (Cyperus difformis); experiment: Test B flooded paddy test; details: Cyperus difformis, Flood, 1000 g ai/ha; scale 0 to 100; read-out: Plant response rating, Sedge, Umbrella
Outline: as §1

wild oat (Avena fatua) = experiment: Test B postemergence; details: Avena fatua, post-emergence
Outline: (§2)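 Under greenhouse conditions, seeded pots and young plants (1- to 4-leaf, 2 to 18 cm) were treated at the same time with test chemicals in a non-phytotoxic solvent mixture containing surfactant. Response was assessed visually after 13 to 15 days, from 0 (no effect) to 100 (complete control).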

[4] = test system: blackgrass (Alopecurus myosuroides); experiment: Test B postemergence; details: Alopecurus myosuroides, post-emergence
Outline: as §2

[5] = test system: morningglory (Ipomoea coccinea); experiment: Test B pre/postemergence; details: Ipomoea; for pest or weed control at 125 g/ha: 125 g ai/ha; for pest or weed control at 500 g/ha: 500 g ai/ha
Outline: as §2

[6] = test system: lambsquarters (Chenopodium album); experiment: Test B pre/postemergence; details: Chenopodium album; for pest or weed control at 125 g/ha: 125 g ai/ha; for pest or weed control at 500 g/ha: 500 g ai/ha
Outline: as §2

[7] = test system: giant foxtail (Setaria faberii); experiment: Test B pre/postemergence; details: Setaria faberi; for pest or weed control at 125 g/ha: 125 g ai/ha; for pest or weed control at 500 g/ha: 500 g ai/ha
Outline: as §2

[8] = test system: wheat (Triticum aestivum); experiment: Test B pre/postemergence; details: Triticum aestivum; for plant injury at 125 g/ha: 125 g ai/ha; for plant injury at 500 g/ha: 500 g ai/ha
Outline: as §2

[9] = test system: Surinam grass (Brachiaria decumbens); experiment: Test B pre/postemergence; details: Urochloa decumbens; for pest or weed control at 125 g/ha: 125 g ai/ha; for pest or weed control at 500 g/ha: 500 g ai/ha
Outline: as §2

[10] = test system: barnyardgrass (Echinochloa crus-galli); experiment: Test B pre/postemergence; details: Echinochloa crus-galli; for pest or weed control at 125 g/ha: 125 g ai/ha; for pest or weed control at 500 g/ha: 500 g ai/ha
Outline: as §2

[11] = test system: cocklebur (Xanthium strumarium); experiment: Test B pre/postemergence; details: Xanthium strumarium; for pest or weed control at 125 g/ha: 125 g ai/ha; for pest or weed control at 500 g/ha: 500 g ai/ha
Outline: as §2

corn (Zea mays) = experiment: Test B pre/postemergence; details: Zea mays
Outline: as §2

[12] = test system: velvetleaf (Abutilon theophrasti); experiment: Test B pre/postemergence; details: Abutilon theophrasti; for pest or weed control at 125 g/ha: 125 g ai/ha; for pest or weed control at 500 g/ha: 500 g ai/ha
Outline: as §2

[13] = test system: pigweed (Amaranthus retroflexus); experiment: Test B pre/postemergence; details: Amaranthus retroflexus; for pest or weed control at 125 g/ha: 125 g ai/ha; for pest or weed control at 500 g/ha: 500 g ai/ha
Outline: as §2

[14] = test system: crabgrass (Digitaria sanguinalis); experiment: Test B pre/postemergence; details: Digitaria sanguinalis; for pest or weed control at 125 g/ha: 125 g ai/ha; for pest or weed control at 500 g/ha: 500 g ai/ha
Outline: as §2

With `COC(=O)c1nc(C2CC2)nc(N)c1F` [Compound 25] the plant injury at 1000 g/ha (rice (Oryza sativa)) was 30%, the pest or weed control at 1000 g/ha [1] was 40% and the pest or weed control at 1000 g/ha [2] was 30%. For the same molecule, the pest or weed control at 1000 g/ha [3] was 40%, the pest or weed control at 125 g/ha (wild oat (Avena fatua); 125 g ai/ha, scale 0 to 100 (0 no effect, 100 complete control), read-out: Oat, Wild plant response rating) was 10% and the pest or weed control at 500 g/ha (wild oat (Avena fatua); 500 g ai/ha, scale 0 to 100, read-out: Plant response rating, Oat, Wild) was 20%. For the same molecule, the pest or weed control at 125 g/ha ([4]; 125 g ai/ha, scale 0 to 100 (0 no effect, 100 complete control), read-out: Blackgrass plant response rating) was 10%, the pest or weed control at 500 g/ha ([4]; 500 g ai/ha, scale 0 to 100, read-out: Plant response rating, Blackgrass) was 60% and the pest or weed control at 125 g/ha ([5]; post-emergence, Postemergence, scale 0 to 100 (0 no effect, 100 complete control), read-out: Morningglory plant response rating) was 90%. It also gave a pest or weed control at 500 g/ha ([5]; post-emergence, Postemergence, scale 0 to 100, read-out: Plant response rating, Morningglory) of 90%, a pest or weed control at 125 g/ha ([5]; pre-emergence, Preemergence, scale 0 to 100 (0 no effect, 100 complete control), read-out: Plant response rating, Morningglory) of 80% and a pest or weed control at 500 g/ha ([5]; pre-emergence, Preemergence, scale 0 to 100 (0 no effect, 100 complete control), read-out: Morningglory plant response rating) of 90%. The pest or weed control at 125 g/ha ([6]; post-emergence, Postemergence, scale 0 to 100 (0 no effect, 100 complete control), read-out: Lambsquarters plant response rating) was 90%, the pest or weed control at 500 g/ha ([6]; post-emergence, Postemergence, scale 0 to 100, read-out: Plant response rating, Lambsquarters) was 90% and the pest or weed control at 125 g/ha ([6]; pre-emergence, Preemergence, scale 0 to 100 (0 no effect, 100 complete control), read-out: Plant response rating, Lambsquarters) was 90%. It also gave a pest or weed control at 500 g/ha ([6]; pre-emergence, Preemergence, scale 0 to 100 (0 no effect, 100 complete control), read-out: Lambsquarters plant response rating) of 90%, a pest or weed control at 125 g/ha ([7]; post-emergence, Postemergence, scale 0 to 100 (0 no effect, 100 complete control), read-out: Foxtail, Giant plant response rating) of 50% and a pest or weed control at 500 g/ha ([7]; post-emergence, Postemergence, scale 0 to 100, read-out: Plant response rating, Foxtail, Giant) of 80%. For the same molecule, the pest or weed control at 125 g/ha ([7]; pre-emergence, Preemergence, scale 0 to 100 (0 no effect, 100 complete control), read-out: Plant response rating, Foxtail, Giant) was 40%, the pest or weed control at 500 g/ha ([7]; pre-emergence, Preemergence, scale 0 to 100 (0 no effect, 100 complete control), read-out: Foxtail, Giant plant response rating) was 80% and the plant injury at 125 g/ha ([8]; post-emergence, Postemergence, scale 0 to 100 (0 no effect, 100 complete control), read-out: Wheat plant response rating) was 20%. For the same molecule, the plant injury at 500 g/ha ([8]; post-emergence, Postemergence, scale 0 to 100, read-out: Plant response rating, Wheat) was 30%, the plant injury at 125 g/ha ([8]; pre-emergence, Preemergence, scale 0 to 100 (0 no effect, 100 complete control), read-out: Plant response rating, Wheat) was 50% and the plant injury at 500 g/ha ([8]; pre-emergence, Preemergence, scale 0 to 100 (0 no effect, 100 complete control), read-out: Wheat plant response rating) was 60%. The pest or weed control at 125 g/ha ([9]; post-emergence, Postemergence, scale 0 to 100 (0 no effect, 100 complete control), read-out: Surinam Grass plant response rating) was 50%, the pest or weed control at 500 g/ha ([9]; post-emergence, Postemergence, scale 0 to 100, read-out: Plant response rating, Surinam Grass) was 70% and the pest or weed control at 125 g/ha ([9]; pre-emergence, Preemergence, scale 0 to 100 (0 no effect, 100 complete control), read-out: Plant response rating, Surinam Grass) was 20%. The pest or weed control at 500 g/ha ([9]; pre-emergence, Preemergence, scale 0 to 100 (0 no effect, 100 complete control), read-out: Surinam Grass plant response rating) was 70%, the pest or weed control at 125 g/ha ([10]; post-emergence, Postemergence, scale 0 to 100 (0 no effect, 100 complete control), read-out: Barnyardgrass plant response rating) was 40% and the pest or weed control at 500 g/ha ([10]; post-emergence, Postemergence, scale 0 to 100, read-out: Plant response rating, Barnyardgrass) was 80%. For the same molecule, the pest or weed control at 125 g/ha ([10]; pre-emergence, Preemergence, scale 0 to 100 (0 no effect, 100 complete control), read-out: Plant response rating, Barnyardgrass) was 20%, the pest or weed control at 500 g/ha ([10]; pre-emergence, Preemergence, scale 0 to 100 (0 no effect, 100 complete control), read-out: Barnyardgrass plant response rating) was 60% and the pest or weed control at 125 g/ha ([11]; post-emergence, Postemergence, scale 0 to 100 (0 no effect, 100 complete control), read-out: Cocklebur plant response rating) was 90%. For the same molecule, the pest or weed control at 500 g/ha ([11]; post-emergence, Postemergence, scale 0 to 100, read-out: Plant response rating, Cocklebur) was 90%, the pest or weed control at 125 g/ha ([11]; pre-emergence, Preemergence, scale 0 to 100 (0 no effect, 100 complete control), read-out: Plant response rating, Cocklebur) was 80% and the pest or weed control at 500 g/ha ([11]; pre-emergence, Preemergence, scale 0 to 100 (0 no effect, 100 complete control), read-out: Cocklebur plant response rating) was 90%. It also gave a plant injury at 125 g/ha (corn (Zea mays); post-emergence, Postemergence, 125 g ai/ha, scale 0 to 100 (0 no effect, 100 complete control), read-out: Corn plant response rating) of 0%, a Corn plant response rating (crop injury, 0 = no effect, 100 = complete kill) at 500 g/ha (corn (Zea mays); post-emergence, Postemergence, 500 g ai/ha, scale 0 to 100) of 30% and a Corn plant response rating (crop injury, 0 = no effect, 100 = complete kill) at 125 g/ha (corn (Zea mays); pre-emergence, Preemergence, 125 g ai/ha, scale 0 to 100 (0 no effect, 100 complete control)) of 0%. The plant injury at 500 g/ha (corn (Zea mays); pre-emergence, Preemergence, 500 g ai/ha, scale 0 to 100 (0 no effect, 100 complete control), read-out: Corn plant response rating) was 0%, the pest or weed control at 125 g/ha ([12]; post-emergence, Postemergence, scale 0 to 100 (0 no effect, 100 complete control), read-out: Velvetleaf plant response rating) was 60% and the pest or weed control at 500 g/ha ([12]; post-emergence, Postemergence, scale 0 to 100, read-out: Plant response rating, Velvetleaf) was 70%. It also gave a pest or weed control at 125 g/ha ([12]; pre-emergence, Preemergence, scale 0 to 100 (0 no effect, 100 complete control), read-out: Plant response rating, Velvetleaf) of 70%, a pest or weed control at 500 g/ha ([12]; pre-emergence, Preemergence, scale 0 to 100 (0 no effect, 100 complete control), read-out: Velvetleaf plant response rating) of 80% and a pest or weed control at 125 g/ha ([13]; post-emergence, Postemergence, scale 0 to 100 (0 no effect, 100 complete control), read-out: Pigweed plant response rating) of 90%. It also gave a pest or weed control at 500 g/ha ([13]; post-emergence, Postemergence, scale 0 to 100, read-out: Plant response rating, Pigweed) of 100%, a pest or weed control at 125 g/ha ([13]; pre-emergence, Preemergence, scale 0 to 100 (0 no effect, 100 complete control), read-out: Plant response rating, Pigweed) of 80% and a pest or weed control at 500 g/ha ([13]; pre-emergence, Preemergence, scale 0 to 100 (0 no effect, 100 complete control), read-out: Pigweed plant response rating) of 90%. For the same molecule, the pest or weed control at 125 g/ha ([14]; post-emergence, Postemergence, scale 0 to 100 (0 no effect, 100 complete control), read-out: Crabgrass plant response rating) was 60%, the pest or weed control at 500 g/ha ([14]; post-emergence, Postemergence, scale 0 to 100, read-out: Plant response rating, Crabgrass) was 80% and the pest or weed control at 125 g/ha ([14]; pre-emergence, Preemergence, scale 0 to 100 (0 no effect, 100 complete control), read-out: Plant response rating, Crabgrass) was 60%. The pest or weed control at 500 g/ha ([14]; pre-emergence, Preemergence, scale 0 to 100 (0 no effect, 100 complete control), read-out: Crabgrass plant response rating) was 70%.
